From US11744853B2, “Method of administration and treatment” (Dyve Biosciences, Inc., priority 2017, dated 2023)

How the values were obtained:
MCF-7 cells = assay: Doxorubicin uptake and cytotoxicity in MCF-7 cells at medium pH 6.8 or 7.4 (Example 9); type: cell-based
Method: Medium pH was buffered using non-volatile buffers (10 mM MES, 20 mM HEPES and 10 mM TRICINE) in combination with bicarbonate concentrations that were adjusted to be in equilibrium with 5% ambient carbon dioxide. Twenty-four hours later, regular growth medium was replaced and cells allowed to grow a subsequent 72 h, after which time they were fixed and stained with crystal violet for determination of cell number.

MCF-7 tumors = assay: MCF-7 tumor growth in SCID mice, doxorubicin with oral or topical bicarbonate (Example 9); type: in vivo; details: B doxorubicin 1.6 mg/kg i.p. days 3, 7, 11; C oral 200 mM bicarbonate; D oral bicarbonate + doxorubicin; E topical formulation 150 μL/day; F topical + doxorubicin
From the text: The start of the bicarbonate treatment was designated as day 1. […] On day 15, animals in Groups C and D were placed back on normal drinking water and animals in Groups E and F ceased received t.i.d. topical applications.
Tumor volumes and animal weights were monitored every 2 days.

doxorubicin was tested, and the “increase in intracellular doxorubicin concentrations on raising the pHe from 6.8 to 7.4” value (MCF-7 cells; 14C doxorubicin) was 2.56 fold, the “enhancement of cytotoxicity on raising the pHe from 6.8 to 7.4” value (MCF-7 cells; 24 h exposure, crystal violet after a subsequent 72 h) was 2.25 fold and the “reduction in tumor growth rate” value (MCF-7 tumors) was about 30%.
